Measurements: the NIST ThermoML archive (doi:10.1016/j.fluid.2013.03.001)

What was measured:
[1] = molar heat capacity at constant pressure; settings: 101.33 kPa, Liquid, Small sample (50 mg) DSC
[2] = 101.33 kPa, Liquid; for viscosity: Concentric cylinders viscometry; for mass density: Vibrating tube method

CCCCn1cc[n+](C)c1.[Cl][Fe-]([Cl])([Cl])[Cl] [1-butyl-3-methylimidazolium tetrachloroferrate]
Settings | mass density [kg/m3] | molar heat capacity at constant pressure [J/K/mol] | viscosity [mPa·s]
[1], 308.16 K | – | 436.39 | –
[1], 313.16 K | – | 446.09 | –
[1], 318.16 K | – | 446.39 | –
[1], 323.16 K | – | 447.13 | –
[1], 328.22 K | – | 449.63 | –
[1], 333.22 K | – | 451.03 | –
[1], 338.19 K | – | 452.53 | –
[1], 343.18 K | – | 456.2 | –
[1], 348.25 K | – | 457.4 | –
[1], 353.18 K | – | 457.95 | –
[1], 358.25 K | – | 459.31 | –
[1], 363.18 K | – | 460.92 | –
[1], 368.17 K | – | 461.57 | –
[1], 373.21 K | – | 462.88 | –
[1], 378.2 K | – | 463.64 | –
[1], 383.17 K | – | 465.82 | –
[1], 388.2 K | – | 465.66 | –
[1], 393.17 K | – | 466.11 | –
[1], 398.2 K | – | 467.83 | –
[1], 403.2 K | – | 469.12 | –
[1], 408.16 K | – | 469.7 | –
[1], 413.19 K | – | 469.42 | –
[1], 418.19 K | – | 471.44 | –
[1], 423.22 K | – | 470.84 | –
[2], 278.15 K | – | – | 103.3
[2], 283.15 K | – | – | 79.5
[2], 288.15 K | – | – | 62.6
[2], 293.15 K | 1370 | – | 50.2
[2], 294.15 K | 1369.2 | – | –
[2], 295.15 K | 1368.3 | – | –
[2], 296.15 K | 1367.5 | – | –
[2], 297.15 K | 1366.7 | – | –
[2], 298.15 K | 1365.8 | – | 41
[2], 299.15 K | 1365 | – | –
[2], 300.15 K | 1364.2 | – | –
[2], 301.15 K | 1363.3 | – | –
[2], 302.15 K | 1362.5 | – | –
[2], 303.15 K | 1361.7 | – | 33.9
[2], 304.15 K | 1360.9 | – | –
[2], 305.15 K | 1360.1 | – | –
[2], 306.15 K | 1359.2 | – | –
[2], 307.15 K | 1358.4 | – | –
[2], 308.15 K | 1357.6 | – | 28.5
[2], 309.15 K | 1356.8 | – | –
[2], 310.15 K | 1356 | – | –
[2], 311.15 K | 1355.1 | – | –
[2], 312.15 K | 1354.3 | – | –
[2], 313.15 K | 1353.5 | – | 24.2
[2], 314.15 K | 1352.7 | – | –
[2], 315.15 K | 1351.9 | – | –
[2], 316.15 K | 1351.1 | – | –
[2], 317.15 K | 1350.3 | – | –
[2], 318.15 K | 1349.5 | – | 20.8
[2], 319.15 K | 1348.7 | – | –
[2], 320.15 K | 1347.8 | – | –
[2], 321.15 K | 1347 | – | –
[2], 322.15 K | 1346.2 | – | –
[2], 323.15 K | 1345.4 | – | 18.1
[2], 324.15 K | 1344.6 | – | –
[2], 325.15 K | 1343.8 | – | –
[2], 326.15 K | 1343 | – | –
[2], 327.15 K | 1342.2 | – | –
[2], 328.15 K | 1341.4 | – | 15.8
[2], 329.15 K | 1340.6 | – | –
[2], 330.15 K | 1339.8 | – | –
[2], 331.15 K | 1339 | – | –
[2], 332.15 K | 1338.2 | – | –
[2], 333.15 K | 1337.4 | – | 13.9
[2], 334.15 K | 1336.6 | – | –
[2], 335.15 K | 1335.9 | – | –
[2], 336.15 K | 1335.1 | – | –
[2], 337.15 K | 1334.3 | – | –
[2], 338.15 K | 1333.5 | – | 12.4
[2], 339.15 K | 1332.7 | – | –
[2], 340.15 K | 1331.9 | – | –
[2], 341.15 K | 1331.1 | – | –
[2], 342.15 K | 1330.3 | – | –
[2], 343.15 K | 1329.5 | – | 11.1
[2], 344.15 K | 1328.7 | – | –
[2], 345.15 K | 1328 | – | –
[2], 346.15 K | 1327.2 | – | –
[2], 347.15 K | 1326.4 | – | –
[2], 348.15 K | 1325.6 | – | 10
[2], 349.15 K | 1324.8 | – | –
[2], 350.15 K | 1324 | – | –
[2], 351.15 K | 1323.3 | – | –
[2], 352.15 K | 1322.5 | – | –
[2], 353.15 K | 1321.7 | – | 9
[2], 354.15 K | 1320.9 | – | –
[2], 355.15 K | 1320.1 | – | –
[2], 356.15 K | 1319.4 | – | –
[2], 357.15 K | 1318.6 | – | –
[2], 358.15 K | 1317.8 | – | 8.2
[2], 359.15 K | 1317 | – | –
[2], 360.15 K | 1316.3 | – | –
[2], 361.15 K | 1315.5 | – | –
[2], 362.15 K | 1314.7 | – | –
[2], 363.15 K | 1313.9 | – | 7.5
[2], 368.15 K | – | – | 6.9
[2], 373.15 K | – | – | 6.3
